Literature values as cited in patent publication US20260248829A1, “PHOSPHOLIPID COMPOSITIONS COMPRISING EPA AND/OR DHA FOR AMELIORATING NEURODEGENERATION AND AGE-RELATED NEURODEGENERATIVE DISORDERS” (Aker BioMarine Human Ingredients AS, priority 2022, published 2026).

Test system: dopaminergic neurons in the nigro-striatal circuit
Conditions: young mice

CC1=C(/C=C/C(C)=C/C=C/C(C)=C/C=C/C=C(C)/C=C/C=C(C)/C=C/C2=C(C)C(=O)[C@@H](O)CC2(C)C)C(C)(C)C[C@H](O)C1=O [astaxanthin]
protection of dopaminergic neurons: protects
